# Assay results taken from US20250049914A1, “STEROID ACID-PEPTIDE BASED INTRACELLULAR CARGO DELIVERY” (DEFENCE THERAPEUTICS INC., priority 2021, published 2025).
# Where no end group is shown, it is not given here.
# How the values were obtained:
# [1] = test system: human WT MSCs; assay: OVA processing by human MSCs, flow cytometry; assay type: cell-based; details: CA-hnRNPA1-treated human MSCs
# [2] = test system: mesenchymal stromal cells (MSCs); assay: DQ OVA degradation/processing in MSCs, flow cytometry; assay type: cell-based; details: DQ OVA coincubated with conjugate, nine hours
# Procedure: To evaluate OVA degradation/processing, cells were incubated with 10 µg/mL DQ™ OVA (with or without steroid acid-peptide modification) at 37° C. 30 minutes later, cells were washed, and regular media was added. At the end of the indicated incubation time, cells were collected and washed with cold PBS containing 2% FBS. Fluorescence was monitored by analyzing the cells by flow cytometry.
# (§1) Mesenchymal stromal cells (MSCs) were incubated with either unconjugated fluorescently labeled OVA-AF647 alone or mixed with 45 μM of CA-HnRPA1 NLS steroid acid-peptide for nine hours and then intracellular OVA-AF647 delivery was assessed by flow cytometry as described in Example 1. […] The experiment was repeated with DQ™ OVA as cargo to evaluate the intracellular fate of the cargo delivered upon coincubation with CA-HnRPA1 NLS, as described in Example 4.
# [3] = test system: cpMSCs; assay: OVA-AF647 internalization in cpMSCs, flow cytometry; assay type: cell-based; details: various molar ratios
# Procedure: For this experiment, a cross-presenting mesenchymal stromal cell line (cpMSC) was used as the antigen presenting cells, which were pulsed with the OVA cargo labelled with Alexa Fluor 647 (i.e., OVA^647)^TM. OVA^647 fluorescence was measured by flow cytometry. Different ratios of CA (NLS1 RPS17 [FIG. 16A]; NLS3 RPS17 [FIG. 16B]; and PQBP-1 [FIG. 16C] to antigen (CA: OVA=22:1, 12:1, 8:1, 4:1, and 2:1) were tested (hnRNPA1 M9 NLS at 2:1).
# To further dissect the effect of bile acid peptide conjugates on antigen presentation, antigen internalization and processing were evaluated. cpMSCs were pulsed with OVA-labelled with AF647 in the presence of various molar ratios of different bile acid peptide conjugates, NLS1-RPS17 [FIG. 16A]; NLS3 RPS17 [FIG. 16B]; PQBP-1 [FIG. 16C]; and hnRNPA1 M9 NLS [FIG. 6]) and fluorescence was assessed by flow cytometry. […] OVA processing was assessed by pulsing cpMSCs with DQ™-Ovalbumin (OVA-DQ) in the presence of the same bile acid peptide conjugates as in FIGS. 6 and 16.
# [4] = test system: WT MSCs; assay: Flow cytometry of H2-Kb and I-Ab expression; assay type: cell-based, mouse; details: WT MSCs treated with CA-hnRNPA1
# Description: FIG. 18A and FIG. 18B show the results of antigen cross-presentation assay conducted using CA-hnRNPA1 admixed with OVA compared to controls and CA-SV40. […] For FIGS. 18B, 18E and 18F, n=6/group with *P<0.05, **P<0.01 and ***P<0.001.
# FIG. 18G and FIG. 18H show the increase in H2-Kb and I-Ab expression in WT MSCs treated with CA-hnRNPA1, respectively.
# [5] = test system: MSCs; assay: Endosomal escape, apoptosis assay with recombinant cytochrome C; assay type: cell-based, mouse; details: CA-hnRNPA1 50 μM, 6 h
# Procedure: Endosomal leakage was assessed using an apoptosis assay. Briefly, 10′ MSCs were first supplemented with 10 mg/mL of exogenous rCyt-C for 6 h at 37° C. in the presence or absence of CA-hnRNPA1 (50 μM). Once the incubation period completed, the cells were collected using Accutase®, washed with ice cold PBS, then stained for Annexin-V according to manufacturer's instructions prior to analysis using BD FACS Diva™ on CANTOII™.
# [6] = test system: MSCs; assay: Flow cytometry assessment of ROS production; assay type: cell-based, mouse; details: WT MSCs
# Description: Dp44mt was used as a positive control. […] For FIGS. 19A-19C, n=6/group with *P<0.05, **P<0.01 and ***P<0.001.
# Next, the mechanism involved in cross presentation enhancement of steroid acid-peptide conjugates was further dissected.
# [7] = test system: mesenchymal stromal cells (MSCs); assay: OVA-AF647 intracellular delivery, flow cytometry; assay type: cell-based; details: OVA-AF647 mixed with 45 μM conjugate, nine hours, vs cargo alone
# Procedure: as §1
# [8] = test system: WT MSCs; assay: Antigen cross-presentation assay on wild-type MSCs with B3Z cells; assay type: cell-based, mouse
# Procedure: In order to generate Bone marrow (BM)-derived mouse MSCs, the femurs of 6-8-week-old female Balb/c or C57BL/6 mice were isolated and flushed with Alpha Modification of Eagle's Medium (AMEM) supplemented with 10% FBS and 50 U/mL Penicillin-Streptomycin in a 10 cm cell culture dish, then incubated at 37° C. Two days later, non-adherent cells were removed and the media replaced every 3 to 4 days until plastic-adherent cells reached 80% confluency. The generated cells were detached using 0.05% trypsin and expanded until a uniform MSC population was obtained. The generated MSCs were validated for their innate phenotype by flow-cytometry for the expression of CD44, CD45, CD73, and CD90. The cells were frozen in liquid nitrogen until use.
# To assess cross-presentation assay, 25×10^3 cells MSCs were seeded per well in 24-well plate then pulsed with steroid acid peptide-conjugated for 6 h admixed with OVA. At the end of the pulsing period, the cells were washed to remove excess antigen then 5×10^4 B3Z cells. The cells were incubated for 17-19 hours prior to their lysis and incubation for another 4-6 hours at 37° C. with a CPRG solution. The optical density signal was detected at wavelength 570 using a SynergyH1™ microplate reader (Biotek, Winooski, VT, United States).
# To determine whether a similar effect occurs in wild type (WT) (i.e., non-engineered) MSCs, BM-derived MSCs (Example 1) were used instead in the same cross presentation assay with B3Z responder cells.
# [9] = test system: MSCs; assay: Cytokine and chemokine analysis (Luminex); assay type: cell-based, mouse; details: 50 μM CA-hnRNPA1, 6 h
# Procedure: For cytokine and chemokine profiling, 15 cm cell culture dishes containing 80-90% confluent MSCs were grown in serum-free AMEM for 24 h at 37° C. and 5% CO2. MSCs were then treated with 50 μM of CA-hnRNPA1 in serum-free AMEM for 6 h. The supernatant was collected and fresh serum-free AMEM was replenished, without CA-hnRNPA1. After 24 h of the initial CA-hnRNPA1 treatment, the supernatant was collected and gathered with the previous one collected. Collected supernatants were then concentrated using the Amicon Ultra-4™ centrifugal filters (3000 NMWL) for 1 h at 4° C. Collected concentrates (80×) were then frozen at −80° C. until shipped to EveTechnologies™ (Calgary, AB, Canada) for cytokine/chemokine assessment by […].
substance,measurement,setting,value
"CA-hnRNPA1: cholic acid conjugated to hnRNPA1 M9 NLS peptide CSNFGPMKGGNFGGRSSGPY (SEQ ID NO: 4) (not fully specified (N-terminus); also: cholic acid conjugate, site not given here)",OVA processing by human MSCs,[1],increase of OVA processing
same,DQ OVA fluorescence (intracellular degradation/processing),[2]; listed as CA-HnRPA1 NLS,sharp increase
same,DQ OVA fluorescence (intracellular degradation/processing),[2]; listed as CA-hnRPA1 M9 NLS,increased intracellular degradation/processing
same,OVA internalization (OVA-AF647 fluorescence),[3],enhance OVA internalization
same,I-Ab expression,[4],increase
same,endosomal membrane damage (co-treatment with recombinant cytochrome C),[5],endosomal membrane damaging properties
same,ROS production by MSCs,[6],increase in ROS production
same,intracellular OVA-AF647 cargo delivery,[7]; listed as CA-HnRPA1,increased intracellular cargo delivery
same,intracellular OVA-AF647 cargo delivery,[7]; listed as CA-hnRPA1 M9 NLS,increased intracellular delivery
same,antigen cross-presentation with conjugate diluted in PBS or H2O,[8]; WT MSCs,enhancement
same,OVA cross presentation by WT MSCs (B3Z),[8]; WT MSCs pulsed with OVA with or without conjugate,significantly enhanced
same,cytokine levels (Luminex),[9],increases in various cytokines
